From ChEMBL document CHEMBL1143951, “Synthesis and cytotoxicity evaluation of 22,23-oxygenated stigmastane derivatives” (Bioorg Med Chem, 2008)

What was measured:
MCF7 = assay: Cytotoxicity against human MCF7 cells after 48 hrs by MTT assay; format: functional, cell-based
HepG2 = assay: Cytotoxicity against human HepG2 cells after 48 hrs by MTT assay; format: functional, cell-based

Row | SMILES | Activity (MCF7) | Activity (HepG2)
1 | CCC(C(C)C)[C@@H](O)[C@H](O)[C@@H](C)[C@H]1CC[C@H]2[C@@H]3C[C@@H]4O[C@@]45C[C@@H](O)CC[C@]5(C)[C@H]3CC[C@]12C (stereo partly specified) | Toxic | 
2 | CCC(C(C)C)[C@@H](O)[C@H](O)[C@@H](C)[C@H]1CC[C@H]2[C@@H]3CC=C4C[C@@H](O)CC[C@]4(C)[C@H]3CC[C@]12C (stereo partly specified) | Toxic | Toxic
3 | CC[C@@H](C(C)C)[C@@H](O)[C@H](O)[C@@H](C)[C@H]1CC[C@H]2[C@@H]3CC(=O)C4=CC(=O)CC[C@]4(C)[C@H]3CC[C@]12C | Toxic | 
4 | CCC(C(C)C)[C@H]1O[C@@H]1[C@@H](C)[C@H]1CC[C@H]2[C@@H]3[C@H](O)C=C4C[C@@H](O)CC[C@]4(C)[C@H]3CC[C@]12C (stereo partly specified) | Toxic | Toxic
5 | CCC(C(C)C)[C@@H](O)[C@H](O)[C@@H](C)[C@H]1CC[C@H]2[C@@H]3C(=O)C=C4C[C@@H](O)CC[C@]4(C)[C@H]3CC[C@]12C (stereo partly specified) | Toxic | Toxic
6 | CC[C@@H](C(C)C)[C@@H](O)[C@H](O)[C@@H](C)[C@H]1CC[C@H]2[C@@H]3CCC4=CC(=O)CC[C@]4(C)[C@H]3CC[C@]12C | Toxic | 
7 | CCC(C(C)C)[C@@H](O)[C@H](O)[C@@H](C)[C@H]1CC[C@H]2[C@@H]3C[C@@H](O)[C@@]4(O)C[C@@H](O)CC[C@]4(C)[C@H]3CC[C@]12C (stereo partly specified) | Toxic | Toxic
